Experimental data reported in ChEMBL document CHEMBL1147205 (Eur J Med Chem, 2007).
Converted amounts (≈) assume the structure as drawn. The source made the active and inactive calls. The calls are words filed in the database; no cut-off is given here.

Experiments:
[1] = artificial membrane
Description: Affinity to immobilized artificial membrane by reversed phase HPLC

[2] = physchem; settings: phosphate buffer, pH 5
Description: Solubility in phosphate buffer at pH 5.0

[3] = tested on: Macrophage; assay: Inhibition of SP-A degradation in rabbit alveolar macrophages; format: functional, cell-based; settings: Oryctolagus cuniculus
[4] = physchem; settings: phosphate buffer, pH 7.4
Description: Solubility in phosphate buffer at pH 7.4

[5] = physchem; settings: phosphate buffer, pH 7.5
Description: Lipophilicity in phosphate buffer at pH 7.5

[6] = tested on: Macrophage; assay: Effect on rabbit alveolar macrophages assessed as reduction in viability at 50 uM by trypan blue exclusion; format: functional, cell-based; settings: Oryctolagus cuniculus

SMILES	logD IAM [1]	solubility [2] [µM]	Activity [3]	solubility [4] [µM]	logD [5]	Activity [6]
CCCCc1oc2ccccc2c1C(=O)c1cc(I)c(OCCN2CCCCC2)c(I)c1	4.28	2220 (≈ 1460 µg/mL)	Active	23 (≈ 15.1 µg/mL)	8.04	
CCCCc1oc2ccccc2c1C(=O)c1cc(I)c(OCCN2CCOCC2)c(I)c1	3.36	170 (≈ 112 µg/mL)		15 (≈ 9.89 µg/mL)	6.15	
CCCCc1oc2ccccc2c1C(=O)c1cc(I)c(OCCCN(C)C)c(I)c1	3.56	1040 (≈ 657 µg/mL)	Active	212 (≈ 134 µg/mL)	7.98	Active
CCCCc1oc2ccccc2c1C(=O)c1cc(I)c(OCCN(C(C)C)C(C)C)c(I)c1	4.58	230 (≈ 155 µg/mL)		14 (≈ 9.43 µg/mL)	8.74	
CCCCc1oc2ccccc2c1C(=O)c1cc(I)c(OCCN2CCCC2)c(I)c1	4.23	1860 (≈ 1200 µg/mL)	Active	49 (≈ 31.5 µg/mL)	7.82	Active
CCCCc1oc2ccccc2c1C(=O)c1cc(I)c(OCCN(C)C)c(I)c1	3.64	2210 (≈ 1360 µg/mL)		51 (≈ 31.5 µg/mL)	7.15	
